The results in this text go back to US20220160617A1, “COMPOSITIONS AND METHODS FOR IMPROVING SKIN HEALTH AND FOR THE TREATMENT AND PREVENTION OF DISEASES, DISORDERS AND CONDITIONS ASSOCIATED WITH PATHOGENIC MICROBES” (DermBiont, Inc., priority 2019, published 2022).

Where a SMILES comes first, the peptide text is derived from it.

The test system of the first test is fungal or bacterial pathogens. In kind it is cell-based.
Details: not given
Take `O=NO` [Nitrite]: the “Concentration Range of Efficacy” value was 0.1 to 1 mM.
The same measure, in the same setting: for `O=[N+]([O-])O` [Nitrate] the value was 0.1 to 1 mM.

The test is the same for the next values; noted with them: components for enhancing function of human-derived Janthinobacterium lividum.
Regarding `CO[C@@H]1O[C@H](C(=O)O)[C@@H](O)[C@H](O)[C@H]1O` [β-Methyl-D-Glucuronic Acid], the “Concentration Range of Efficacy” value is 1 to 5 mM.
The same measure, in the same setting: for Pectin the value was 1 to 5 mM; for `CO[C@H]1O[C@H](CO)[C@@H](O)[C@H](O)[C@H]1O` [α-Methyl-D-Glucoside], 1 to 5 mM; for `CO[C@@H]1O[C@H](CO)[C@@H](O)[C@H](O)[C@H]1O` [β-Methyl-D-Galactoside], 1 to 5 mM.
For `O=C(O)[C@@H](O)[C@H](O)C(=O)O` [D-Tartaric acid], the “Concentration Range of Efficacy” value lay within 1 to 5 mM.
The same measure, in the same setting: for `OC[C@H](O)C(O)[C@@H](O)CO` [L-Arabitol] the value was 1 to 5 mM; for `OC[C@H]1O[C@H](OC[C@H]2OC(O)(CO)[C@@H](O)[C@@H]2O)[C@H](O)[C@@H](O)[C@@H]1O` (stereo partly shown) [Palatinose], 1 to 5 mM.
For `OC[C@H]1O[C@@H]2O[C@H]3[C@H](O)[C@@H](O)[C@@H](O[C@H]4[C@H](O)[C@@H](O)[C@@H](O[C@H]5[C@H](O)[C@@H](O)[C@@H](O[C@H]6[C@H](O)[C@@H](O)[C@@H](O[C@H]7[C@H](O)[C@@H](O)[C@@H](O[C@H]1[C@H](O)[C@H]2O)O[C@@H]7CO)O[C@@H]6CO)O[C@@H]5CO)O[C@@H]4CO)O[C@@H]3CO` [α-Cyclodextrin], the “Concentration Range of Efficacy” value was in the range of 1 to 5 mM.
Still for that read-out and setting: for `O=C(O)[C@H]1OC(O)[C@H](O)[C@@H](O)[C@@H]1O` (stereo partly drawn) [D-Glucoronic Acid] the value was 2 to 20 mM; for Glycogen, 1 to 5 mM; for `OC[C@H]1O[C@@](CO)(O[C@H]2O[C@H](CO)[C@@H](O)[C@H](O)[C@H]2O)[C@@H](O[C@H]2O[C@H](CO)[C@@H](O)[C@H](O)[C@H]2O)[C@@H]1O` [D-Melezitose], 1 to 5 mM.
In the case of `O=C(O)[C@H](O)[C@@H](O)C(=O)O` [L-Tartaric acid], the “Concentration Range of Efficacy” value lay in the range of 1 to 5 mM.
Same read-out and setting: for `OC[C@H]1O[C@@H]2O[C@H]3[C@H](O)[C@@H](O)[C@@H](O[C@H]4[C@H](O)[C@@H](O)[C@@H](O[C@H]5[C@H](O)[C@@H](O)[C@@H](O[C@H]6[C@H](O)[C@@H](O)[C@@H](O[C@H]7[C@H](O)[C@@H](O)[C@@H](O[C@H]8[C@H](O)[C@@H](O)[C@@H](O[C@H]1[C@H](O)[C@H]2O)O[C@@H]8CO)O[C@@H]7CO)O[C@@H]6CO)O[C@@H]5CO)O[C@@H]4CO)O[C@@H]3CO` [β-Cyclodextrin] the value was 1 to 5 mM; for `NC(N)=O` [Urea], 0.1 to 1 mM; for `CO[C@@H]1O[C@H](CO)[C@@H](O)[C@H](O)[C@H]1O` [β-Methyl-D-Glucoside], 2 to 20 mM.
On the same count and under the same terms, for dextrin the value was 1 to 5 mM.
On the same count and under the same terms, for Mannan the value was 1 to 5 mM; for `OC[C@@H](O)[C@H](O)[C@H](O)[C@@H](O)CO` [Dulcitol], 2 to 20 mM.
Take `COC1OC(CO)C(O)C(O)C1O` [α-Methyl-D-Galactoside]: the “Concentration Range of Efficacy” value fell in the range of 2 to 20 mM.
Still for that read-out and setting: for `OC[C@@H](O)[C@@H](O[C@H]1O[C@H](CO)[C@@H](O)[C@H](O)[C@H]1O)[C@H](O)[C@@H](O)CO` [Maltitol] the value was 1 to 5 mM; for `COC1OC(CO)C(O)C(O)C1O` [α-Methyl-D-Mannoside], 1 to 5 mM; for `O=C1CCC(C(=O)O)O1` (stereo not drawn) [α-Hydroxy Glutaric Acid-g-Lactone], 2 to 20 mM.
The same measure, in the same setting: for `N[C@@H](C(=O)O)[C@@H](O)[C@H](O)[C@H](O)CO` [D-Glucosaminic Acid] the value was 2 to 20 mM.
As for `OC[C@H]1O[C@@H]2O[C@H]3[C@H](O)[C@@H](O)[C@@H](O[C@H]4[C@H](O)[C@@H](O)[C@@H](O[C@H]5[C@H](O)[C@@H](O)[C@@H](O[C@H]6[C@H](O)[C@@H](O)[C@@H](O[C@H]7[C@H](O)[C@@H](O)[C@@H](O[C@H]8[C@H](O)[C@@H](O)[C@@H](O[C@H]9[C@H](O)[C@@H](O)[C@@H](O[C@H]1[C@H](O)[C@H]2O)O[C@@H]9CO)O[C@@H]8CO)O[C@@H]7CO)O[C@@H]6CO)O[C@@H]5CO)O[C@@H]4CO)O[C@@H]3CO` [g-Cyclodextrin], the “Concentration Range of Efficacy” value lay in the range of 1 to 5 mM.
Turning to `O=P(O)(O)OCC(O)CO` (racemic) [D,L-α-Glycerol Phosphate], the “Concentration Range of Efficacy” value lay within 2 to 20 mM.
The same measure, in the same setting: for `OC[C@@H](O)C(O)[C@H](O)CO` [D-Arabitol] the value was 1 to 5 mM; for `Nc1ncnc2c1ncn2C1CC(O)C(CO)O1` (stereo not shown) [2-Deoxy Adenosine], 2 to 20 mM; for `C[C@H](N)C(=O)N[C@@H](CCC(=O)O)C(=O)O` [Ala-Glu] (H-Ala-Glu-OH), 0.1 to 1 mM.
As to `O=P(O)(O)O[C@H]1O[C@H](CO)[C@@H](O)[C@H](O)[C@H]1O` [D-Glucose-1-Phosphate], the “Concentration Range of Efficacy” value lay within 2 to 20 mM.
On the same count and under the same terms, for `OC[C@H]1O[C@H](OCC2O[C@@H](O)[C@H](O)[C@@H](O)[C@@H]2O)[C@H](O)[C@@H](O)[C@H]1O` (stereo partly drawn) [D-Melibiose] the value was 2 to 20 mM; for Maltotriose, 2 to 20 mM.
Regarding Chondroitin Sulfate C, the “Concentration Range of Efficacy” value lay within 1 to 5 mM.
On the same count and under the same terms, for `O=C(CO)[C@@H](O[C@H]1O[C@H](CO)[C@@H](O)[C@H](O)[C@H]1O)[C@H](O)[C@H](O)CO` [Turanose] the value was 1 to 5 mM.
The same measure, in the same setting: for `O=CC[C@H](O)[C@H](O)CO` [2-Deoxy-DRibose] the value was 1 to 5 mM; for `CC(O)C(N)=O` (racemic) [D,L-Lactamide], 0.1 to 1 mM; for Laminarin, 1 to 5 mM.
The same measure, in the same setting: for `OC[C@H]1O[C@@H](O[C@H]2[C@H](O)[C@@H](O)[C@H](O)O[C@@H]2CO)[C@H](O)[C@@H](O)[C@@H]1O` [D-Cellobiose] the value was 2 to 20 mM; for `COC1OCC(O)C(O)C1O` [β-Methyl-D-Xyloside], 1 to 5 mM.
As to `O=C[C@@H](O)[C@H](O[C@@H]1O[C@H](CO)[C@H](O)[C@H](O)[C@H]1O)[C@H](O)CO` [3-0-β-D-Galactopyranosyl-D Arabinose], the “Concentration Range of Efficacy” value is 1 to 5 mM.
On the same count and under the same terms, for Inulin the value was 1 to 5 mM.
On the same count and under the same terms, for `CC(O)CO` (stereo not shown) [1,2-Propanediol] the value was 2 to 20 mM; for `OC[C@@]12OC[C@@H](O1)[C@@H](O)[C@@H](O)[C@@H]2O` [Sedoheptulosan], 1 to 5 mM.
`OC[C@H]1O[C@H](OC[C@H]2O[C@H](OC[C@H]3O[C@H](O[C@]4(CO)O[C@H](CO)[C@@H](O)[C@@H]4O)[C@H](O)[C@@H](O)[C@@H]3O)[C@H](O)[C@@H](O)[C@H]2O)[C@H](O)[C@@H](O)[C@H]1O` [Stachyose]: the “Concentration Range of Efficacy” value is 1 to 5 mM.
On the same count and under the same terms, for `OC[C@@H](O)[C@@H](O)CO` [i-Erythritol] the value was 1 to 5 mM.
